Assay results as given in US20070004634A1 (Novo Nordisk A/S, priority 1998, published 2007).
Residues, ends and D or L forms follow the SMILES beside them.

Key:
[1] = test system: FDC-P2 cells expressing the IL-3 and human IGF-1R receptors; assay: IGF-1 proliferation assay in FDC-P2 cells, agonist format; settings: for FDC-P2 Agonist: FDC-P2 cell proliferation, agonist effect; for agonist activity at IGF-1R, in words / EC50: FDC-P2 cells
[2] = test system: FDC-P2 cells expressing the IL-3 and human IGF-1R receptors; assay: IGF-1 proliferation assay in FDC-P2 cells, antagonist format
IGF-1R [3] = target: T1, IGF-1R (Homo sapiens, UniProt P08069); assay: Phage competition ELISA on IGF-1R; assay type: binding; parameters: included the heterotetrameric (alpha 2-beta 2) extracellular domain of IGF-1R; purchased R&D Systems 391-GR/CF; host or cells: mouse myeloma cell line; settings: phage RP9, RP6, D8B12, D815
Experimental: Wells were blocked with 4% non-fat milk in PBS for 60 min at room temperature. One hundred microliters of rescued phage were added to each well. […] The labeled antibody was incubated at room temperature for 60 min. After washing, 100 μl of ABTS was added per well and the plates read in a microtiter reader at […]. […] (Site 2). Peptides included RP9 and […]. Phage competition studies were also performed with Site 2-Site 1 dimer peptides containing 6- or 12-amino acid linkers. […] Wells were blocked with 4% non-fat milk in PBS for 60 min at room temperature. One hundred microliters of rescued phage were added to each well. Peptides in varying concentrations were added and the mixture incubated for 2 h at room temperature. […] The labeled antibody was incubated for 60 min at room temperature. After washing, 100 μl of ABTS was added per well and the plates read in a microtiter reader at […]. […] Linker sequences are underlined and shown below.

[4] = target: T2, human insulin receptor (HIR) (Homo sapiens, UniProt P06213); assay: Insulin receptor binding, competition with 125I-labeled insulin (HIR Kd); settings: read-out: IC50 (nM), HIR, 125I-insulin, RRA; target HIR; label 125I-insulin; radio-receptor assay
T2 construct: made in house

[5] = target: T3, soluble human insulin receptor-immunoglobulin heavy chain chimera (sIR-Fc) (Homo sapiens, UniProt P06213); assay: TR-FRET competition with biotinylated RP9 (b-RP9) for sIR-Fc; assay type: binding; settings: for Hill, sIR-Fc, b-RP9, FRET: Hill slope, target sIR-Fc, label b-RP9, TR-FRET
T3 construct: replacing the transmembrane domain and the intracellular domain of IR with constant domains from immunoglobulin Fc or λ subunits; made in house; host or cells: human embryonic kidney 293 cells (Bass et al.)

[6] = target: T3, soluble human insulin receptor-immunoglobulin heavy chain chimera (sIR-Fc); assay: TR-FRET competition with biotinylated S175 (b-S175) for sIR-Fc; assay type: binding; settings: target sIR-Fc, label b-S175; for Hill, sIR-Fc, b-S175, FRET: Hill slope
[7] = test system: soluble human insulin mini-receptor (mIR); assay: Fluorescence polarization, competition with FITC-RP9 for mIR; assay type: binding
Experimental: The FP assays were performed in a 384-well black microplate with a final volume of 30 μl.

[8] = target: T3, soluble human insulin receptor-immunoglobulin heavy chain chimera (sIR-Fc); assay: Fluorescence polarization, competition with FITC-RP9 for sIR-Fc; assay type: binding; settings: for Hill, sIR-Fc, FITC-RP9, FP: Hill slope; for potency / affinity at IR, in words: FP with FITC-RP9, summary of Table 22
IGF-1R [9] = target: T1, IGF-1R; assay: TR-FRET competition with biotinylated-20E2 for rhIGF-1R; settings: TR-FRET (rhIGF-1R, b-20E2) versus FP (sIR-Fc), summary of Table 22
[10] = test system: free fat cells (adipocytes); assay: Adipocyte / free fat cell (FFC) assay, 3H glucose incorporation into lipid
MCF-7 cells [11] = assay: MCF-7 cell proliferation assay, IGF-1R agonist format; assay type: cell-based, human; settings: for MCF-7 Agonist: MCF-7 cell proliferation, agonist effect
From the text: ; FIGS. 65A-65F), and were used for subsequent experiments.

MiaPaCa cells [12] = assay: MiaPaCa cell proliferation assay, IGF-1R agonist format; assay type: cell-based, human; settings: MiaPaCa cell proliferation, agonist effect
[13] = target: T4, soluble HIR ectodomain (sIR) (Homo sapiens, UniProt P06213); assay: Fluorescence polarization, competition with FITC-RP9 for sIR; assay type: binding; settings: Hill slope, target sIR, label FITC-RP9
T4 construct: soluble HIR ectodomain (sIR); Kristensen et al., 1998

MCF-7 cells [14] = settings: MCF-7 cell proliferation, antagonist effect
MiaPaCa cells [15] = settings: MiaPaCa cell proliferation, antagonist effect
[16] = read-out: ED50, agonist activity at IGF-1R
[17] = target sIR-Fc, label FITC-RP9, fluorescence polarization
[18] = free fat cell assay class, Table 9
[19] = FFC assay potency grade, 0, + to ++++++, −

T3 sequence (P06213 28-758 limits assumed, stated change not applied): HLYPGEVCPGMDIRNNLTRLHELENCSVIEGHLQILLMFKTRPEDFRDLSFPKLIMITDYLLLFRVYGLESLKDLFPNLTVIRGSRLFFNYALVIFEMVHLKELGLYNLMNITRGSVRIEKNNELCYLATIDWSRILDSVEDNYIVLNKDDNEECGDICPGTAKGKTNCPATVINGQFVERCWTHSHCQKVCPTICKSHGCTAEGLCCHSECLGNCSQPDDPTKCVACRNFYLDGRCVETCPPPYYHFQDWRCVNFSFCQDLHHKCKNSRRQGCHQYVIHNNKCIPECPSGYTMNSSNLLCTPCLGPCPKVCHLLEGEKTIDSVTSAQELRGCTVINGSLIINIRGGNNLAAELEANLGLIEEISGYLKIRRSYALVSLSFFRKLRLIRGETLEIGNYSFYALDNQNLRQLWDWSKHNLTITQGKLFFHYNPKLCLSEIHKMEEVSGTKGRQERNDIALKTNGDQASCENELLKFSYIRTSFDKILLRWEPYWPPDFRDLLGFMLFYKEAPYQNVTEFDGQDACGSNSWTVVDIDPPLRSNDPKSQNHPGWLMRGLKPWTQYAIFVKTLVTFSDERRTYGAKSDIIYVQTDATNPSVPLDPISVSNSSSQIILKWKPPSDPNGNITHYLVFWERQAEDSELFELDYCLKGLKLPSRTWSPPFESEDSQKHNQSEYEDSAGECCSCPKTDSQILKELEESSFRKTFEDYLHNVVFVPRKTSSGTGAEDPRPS
T3 sequence (P06213 763-956 limits assumed, stated change not applied): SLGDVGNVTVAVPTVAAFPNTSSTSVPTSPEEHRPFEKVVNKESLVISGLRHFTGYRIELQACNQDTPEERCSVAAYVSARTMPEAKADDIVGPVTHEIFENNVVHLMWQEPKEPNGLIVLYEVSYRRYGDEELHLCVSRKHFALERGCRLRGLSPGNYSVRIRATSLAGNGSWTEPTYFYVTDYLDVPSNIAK
T4 sequence (P06213 28-758 limits assumed): as the sequence (P06213 28-758 limits assumed, stated change not applied) above
T4 sequence (P06213 763-956 limits assumed): as the sequence (P06213 763-956 limits assumed, stated change not applied) above
T1 sequence (P08069 31-736 limits assumed): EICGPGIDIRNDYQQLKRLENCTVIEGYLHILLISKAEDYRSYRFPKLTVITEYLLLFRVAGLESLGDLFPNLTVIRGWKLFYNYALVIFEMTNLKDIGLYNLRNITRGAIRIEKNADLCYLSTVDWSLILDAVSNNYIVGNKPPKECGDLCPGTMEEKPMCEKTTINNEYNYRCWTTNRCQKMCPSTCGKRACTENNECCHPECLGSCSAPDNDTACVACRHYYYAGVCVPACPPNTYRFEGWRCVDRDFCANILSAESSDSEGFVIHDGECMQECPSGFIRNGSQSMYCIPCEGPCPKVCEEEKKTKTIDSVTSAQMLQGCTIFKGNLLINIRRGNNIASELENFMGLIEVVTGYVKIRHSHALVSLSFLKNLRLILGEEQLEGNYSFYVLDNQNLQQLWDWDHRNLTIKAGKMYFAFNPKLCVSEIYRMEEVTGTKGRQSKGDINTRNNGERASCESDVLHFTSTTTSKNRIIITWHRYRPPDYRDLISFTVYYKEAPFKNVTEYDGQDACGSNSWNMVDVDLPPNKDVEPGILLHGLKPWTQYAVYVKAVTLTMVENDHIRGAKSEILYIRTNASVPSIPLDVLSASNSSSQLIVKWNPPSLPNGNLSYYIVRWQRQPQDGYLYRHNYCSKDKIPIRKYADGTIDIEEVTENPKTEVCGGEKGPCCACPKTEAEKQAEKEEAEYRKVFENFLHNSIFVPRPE
T1 sequence (P08069 741-935 limits assumed): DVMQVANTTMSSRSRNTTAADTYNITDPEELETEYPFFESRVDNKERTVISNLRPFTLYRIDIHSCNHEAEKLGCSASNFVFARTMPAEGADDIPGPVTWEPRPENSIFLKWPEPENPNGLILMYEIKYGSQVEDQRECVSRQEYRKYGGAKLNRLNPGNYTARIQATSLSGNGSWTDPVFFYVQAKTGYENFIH
T2 sequence (P06213 28-758 limits assumed): as the sequence (P06213 28-758 limits assumed, stated change not applied) above
T2 sequence (P06213 763-1382 limits assumed): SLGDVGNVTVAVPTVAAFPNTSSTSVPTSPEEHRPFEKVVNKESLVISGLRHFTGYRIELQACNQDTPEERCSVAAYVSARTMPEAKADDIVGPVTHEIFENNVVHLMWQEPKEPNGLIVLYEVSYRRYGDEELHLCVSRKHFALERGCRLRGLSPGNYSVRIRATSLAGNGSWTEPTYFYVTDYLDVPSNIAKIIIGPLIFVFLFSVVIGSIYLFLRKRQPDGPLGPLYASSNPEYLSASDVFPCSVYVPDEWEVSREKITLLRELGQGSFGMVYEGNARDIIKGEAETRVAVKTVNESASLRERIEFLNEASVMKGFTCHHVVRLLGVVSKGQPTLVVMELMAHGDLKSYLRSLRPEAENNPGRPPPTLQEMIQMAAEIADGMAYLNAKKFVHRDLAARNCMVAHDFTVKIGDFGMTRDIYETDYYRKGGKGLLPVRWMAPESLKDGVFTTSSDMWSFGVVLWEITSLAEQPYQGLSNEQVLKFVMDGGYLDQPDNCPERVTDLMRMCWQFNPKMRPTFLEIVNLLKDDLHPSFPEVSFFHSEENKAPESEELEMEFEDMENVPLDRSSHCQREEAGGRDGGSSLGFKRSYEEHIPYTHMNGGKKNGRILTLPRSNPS

Row | Molecule | FDC-P2 Agonist [1] | agonist activity at IGF-1R, in words [1] | EC50 [1, 16] | antagonist activity at IGF-1R, in words ([2]; FDC-P2 cells) | competition of Site 1 and Site 2 phage on IGF-1R (IGF-1R [3]) | Hill, sIR-Fc, b-S175, FRET [6] | Hill, sIR-Fc, FITC-RP9, FP [8, 17] | binding to IGF-1R compared with IR, in words (IGF-1R [9]) | FFC [10, 18] | potency / affinity at IR, in words [8] | MCF-7 Agonist (MCF-7 cells [11]) | MiaPaCa Agonist (MiaPaCa cells [12]) | Hill, sIR-Fc, b-RP9, FRET [5] | Hill, sIR, FITC-RP9, FP [13] | FFC [10, 19] | FFC ([10]; Table 6, free fat cell assay) | other results
1 | CC[C@H](C)[C@@H]1NC(=O)[C@H](CCC(=O)O)NC(=O)[C@@H](NC(=O)[C@H](Cc2c[nH]c3ccccc23)NC(=O)[C@H](CC(C)C)NC(=O)[C@H](Cc2c[nH]c3ccccc23)NC(=O)[C@H](C)NC(=O)[C@H](CCCNC(=N)N)NC(=O)[C@H](CCC(=O)O)NC(=O)[C@H](CCC(N)=O)NC(=O)[C@H](CC(=O)O)NC(=O)[C@H](CC(C)C)NC(=O)[C@@H](N)Cc2c[nH]c3ccccc23)CSSC[C@@H](C(=O)N[C@@H](CC(C)C)C(=O)N[C@@H](CO)C(=O)O)NC(=O)CNC(=O)[C@H](CCCNC(=N)N)NC(=O)CNC(=O)[C@H](CO)NC1=O [Peptide D815] | + | IGF-1R agonist activity | ~2 µM | no antagonist activity | competed both Site 1 and Site 2 phage |  |  |  |  |  |  |  |  |  |  |  | 
2 | CC(C)C[C@H](NC(=O)[C@H](Cc1c[nH]c2ccccc12)NC(=O)[C@H](CCC(=O)O)NC(=O)[C@H](Cc1ccc(O)cc1)NC(=O)CNC(=O)[C@@H]1CCCN1C(=O)[C@H](Cc1c[nH]c2ccccc12)NC(=O)[C@@H](NC(=O)[C@@H](NC(=O)CNC(=O)CN)[C@@H](C)O)C(C)C)C(=O)N[C@@H](CCCNC(=N)N)C(=O)N[C@@H](CC(N)=O)C(=O)N[C@@H](C)C(=O)O [Peptide E8] |  |  |  |  |  | −0.74 | −0.49 | comparable binding to IGF-1R and IR | − |  |  |  |  |  |  |  | IC50 [4]: 2200 nM; competition with FITC-RP9 or b-RP9 peptides for binding to sIR-Fc [5]: able to compete; IC50 [6]: 755 nM; competition with peptide ligands such as FITC-RP9 for binding to mIR [7]: did not compete; IC50 ([7]; target mIR, label FITC-RP9, fluorescence polarization, read-out: IC50 (nM), mIR, FITC-RP9, FP): > 100000 nM; IC50 ([8]; target sIR-Fc, label FITC-RP9, fluorescence polarization, read-out: IC50 (nM), sIR-Fc, FITC-RP9, FP): 207 nM; IC50 ([8]; vs. FITC-RP9, read-out: FP sIR-Fc IC50): 206 nM
3 | CC[C@H](C)[C@H](NC(=O)CN)C(=O)N[C@H](C(=O)N[C@@H](CO)C(=O)N[C@@H](CCC(N)=O)C(=O)N[C@@H](CO)C(=O)N[C@H]1CSSC[C@@H](C(=O)N[C@@H](Cc2c[nH]c3ccccc23)C(=O)O)NC(=O)[C@H](Cc2c[nH]c3ccccc23)NC(=O)[C@H](Cc2c[nH]c3ccccc23)NC(=O)[C@@H]2CCCN2C(=O)[C@H](CC(=O)O)NC(=O)[C@H](CO)NC(=O)[C@H](C(C)C)NC(=O)[C@H](CCC(N)=O)NC(=O)CNC(=O)[C@H](C)NC(=O)[C@H](Cc2ccccc2)NC(=O)[C@H](Cc2c[nH]c3ccccc23)NC(=O)[C@H](CC(=O)O)NC(=O)[C@H](Cc2ccc(O)cc2)NC(=O)[C@H](Cc2ccccc2)NC(=O)[C@H](CO)NC(=O)[C@H](CCC(=O)O)NC(=O)[C@@H]2CCCN2C1=O)[C@@H](C)CC [Peptide G33] (HELM PEPTIDE1{G.I.I.S.Q.S.C.P.E.S.F.Y.D.W.F.A.G.Q.V.S.D.P.W.W.C.W}$PEPTIDE1,PEPTIDE1,7:R3-25:R3$$$V2.0; N-terminus and C-terminus assumed; bridges inferred) | + | IGF-1R agonist activity | ~10 µM | no antagonist activity |  |  |  | comparable binding to IGF-1R and IR |  | less potent | + | + |  |  |  |  | Bndg Ratio IGF-1R/IR ([8]; higher values indicated higher affinity for IR than IGF-1R): 1.3; IGF-1R agonist activity, proliferation of MCF-7 and MiaPaCa cells, in words (MCF-7 cells [11]; MCF-7 and MiaPaCa cells (Tables 27-28)): IGF-1R agonist activity
4 | CC(C)C[C@H](NC(=O)[C@H](CCC(=O)O)NC(=O)[C@H](C)NC(=O)[C@@H](NC(=O)[C@H](Cc1ccccc1)NC(=O)[C@H](Cc1c[nH]c2ccccc12)NC(=O)[C@H](CC(=O)O)NC(=O)[C@H](Cc1ccc(O)cc1)NC(=O)[C@H](Cc1ccccc1)NC(=O)[C@H](CC(N)=O)NC(=O)[C@H](C)NC(=O)[C@H](CC(N)=O)NC(=O)[C@H](CCCNC(=N)N)NC(=O)[C@H](CCC(N)=O)NC(=O)[C@H](CC(C)C)NC(=O)[C@H](Cc1c[nH]c2ccccc12)NC(=O)[C@H](CC(=O)O)NC(=O)[C@@H](NC(=O)[C@H](CCCNC(=N)N)NC(=O)CN)C(C)C)C(C)C)C(=O)NCC(=O)O [Peptide S175] |  | IGF-1R agonist activity |  |  |  | −0.58 | −0.56 | high binding ratios for IGF-1R over IR |  |  |  |  | −0.74 | −0.36 | +++ |  | EC50 ([1]; read-out: Cellular EC50, stimulation of proliferation): 10 µM
5 | CC(C)C[C@H](NC(=O)[C@H](CCC(N)=O)NC(=O)[C@H](CCCNC(=N)N)NC(=O)[C@H](CCC(=O)O)NC(=O)[C@H](Cc1ccccc1)NC(=O)[C@H](Cc1c[nH]c2ccccc12)NC(=O)[C@H](CC(=O)O)NC(=O)[C@H](Cc1ccc(O)cc1)NC(=O)[C@H](Cc1ccccc1)NC(=O)[C@H](CO)NC(=O)[C@@H](N)CCC(=O)O)C(=O)NCC(=O)O [Peptide S390] |  |  |  |  |  | −0.49 |  |  | + |  |  |  | −0.49 | −0.64 |  | + | activity in the free fat cell (FFC) assay / at IR, in words [10]: potency similar to full-length RP9 monomer peptides; FFC ([10]; free fat cell assay potency class, Table 7): +
6 | GSLDESFYDWFERQLGKK [Peptide S371] |  | no agonist activity |  |  | competed both Site 1 and Site 2 phage | −0.45 | −0.41 | lower binding ratios for IGF-1R over IR |  | slightly less potent | No | No | −0.69 | −0.29 | + | + | MCF-7 Antagonist (MCF-7 cells [14]): No; MiaPaCa Antagonist (MiaPaCa cells [15]): No; Class ([1]; IGF-1R agonist or antagonist): N; FDC-P2 Antagonist ([2]; FDC-P2 cell proliferation, antagonist effect): +; EC50 ([2]; read-out: ED50, antagonist activity at IGF-1R, FDC-P2 cells, 10 ng/ml IGF-1 test medium): ~7 µM; FFC ([10]; Table 5, free fat cell assay): +
